Data taken from ChEMBL document CHEMBL1148275, “Discovery of thiophene-2-carboxylic acids as potent inhibitors of HCV NS5B polymerase and HCV subgenomic RNA replication. Part 1: Sulfonamides” (Bioorg Med Chem Lett, 2004).

Assays:
Genome polyprotein = Genome polyprotein (Hepatitis C virus genotype 1a (isolate 1) (HCV), UniProt P26664); assay: Inhibition of HCV NS5B polymerase
Huh-7 [1] = assay: Inhibitory concentration against Huh-7 human hepatoma cell line that supports replication of subgenomic HCV RNA replicons (replicon cell line); type: functional, cell-based
Huh-7 [2] = assay: Concentration required to suppress [3H]thymidine uptake by 50% in Huh-7 cells; type: functional; details: Homo sapiens

Genome polyprotein, sequence (P26664 2421-3011 limits assumed): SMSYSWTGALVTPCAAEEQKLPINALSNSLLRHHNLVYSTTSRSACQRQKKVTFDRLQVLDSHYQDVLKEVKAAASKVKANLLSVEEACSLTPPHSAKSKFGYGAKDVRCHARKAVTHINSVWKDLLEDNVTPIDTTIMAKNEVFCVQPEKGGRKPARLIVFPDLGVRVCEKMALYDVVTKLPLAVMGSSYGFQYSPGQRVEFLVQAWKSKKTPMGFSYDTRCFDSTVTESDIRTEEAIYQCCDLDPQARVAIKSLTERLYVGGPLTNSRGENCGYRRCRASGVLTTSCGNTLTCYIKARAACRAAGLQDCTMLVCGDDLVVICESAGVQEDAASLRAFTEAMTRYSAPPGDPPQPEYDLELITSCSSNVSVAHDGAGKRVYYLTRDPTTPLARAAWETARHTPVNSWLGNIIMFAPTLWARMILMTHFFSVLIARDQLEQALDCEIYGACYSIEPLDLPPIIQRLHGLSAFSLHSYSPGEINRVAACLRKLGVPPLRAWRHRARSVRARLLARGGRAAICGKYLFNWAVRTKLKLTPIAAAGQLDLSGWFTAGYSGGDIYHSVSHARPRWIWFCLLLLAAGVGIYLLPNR

| Structure (SMILES) | IC50 (Genome polyprotein) [µM] | IC50 (Huh-7 [1]) [µM] | CC50 (Huh-7 [2]) [µM] |
| --- | --- | --- | --- |
| Cc1ccccc1S(=O)(=O)Nc1sc(-c2ccccc2)cc1C(=O)O | 20 |  |  |
| O=C(O)C(Cc1ccccc1)N(Cc1cccc(C(F)(F)F)c1)C(=O)c1ccc(Cl)cc1Cl (stereo not given) | 1.8 |  |  |
| O=C(Nc1ccc(Cl)cc1)Nc1cc(-c2ccccc2)sc1C(=O)O | > 50 |  |  |
| Cc1ccccc1C(=O)Nc1cc(-c2ccccc2)sc1C(=O)O | 14 |  |  |
| Cc1ccc(C)c(S(=O)(=O)Nc2cc(-c3ccccc3)sc2C(=O)O)c1 | 13 | 11 | 24 |
| Cc1ccc(C(=O)Nc2cc(-c3ccccc3)sc2C(=O)O)cc1 | 12 |  |  |
| O=C(Nc1cc(-c2ccccc2)sc1C(=O)O)Oc1ccc(Cl)cc1 | 13 |  |  |
| Cc1cccc(S(=O)(=O)Nc2cc(-c3ccccc3)sc2C(=O)O)c1 | 7.4 | 100 | 112 |
| Cc1ccccc1S(=O)(=O)Nc1cc(C(=O)O)sc1-c1ccccc1 | > 50 |  |  |
| Cc1cc(S(=O)(=O)Nc2cc(-c3ccccc3)sc2C(N)=O)c(C)cc1Cl | 14 |  |  |

More lines, main results first:

| IC50 (Genome polyprotein) [µM] | IC50 (Huh-7 [1]) [µM] | Structure (SMILES) | CC50 (Huh-7 [2]) [µM] |
| --- | --- | --- | --- |
| 5.4 | 14 | Cc1cc(S(=O)(=O)Nc2cc(-c3ccccc3)sc2C(=O)O)c(C)cc1Cl | 80 |
| 4.1 | 77 | O=C(O)c1sc(-c2ccccc2)cc1NS(=O)(=O)c1ccc(Cl)cc1 | 92 |
| 1.8 | > 100 | Cc1ccccc1S(=O)(=O)Nc1cc(-c2ccc(S(C)(=O)=O)cc2)sc1C(=O)O | > 200 |
| 1.4 | 12 | CC(=O)c1ccc(-c2cc(NS(=O)(=O)c3ccccc3C)c(C(=O)O)s2)cc1 | 147 |
| 1 |  | Cc1ccc(S(=O)(=O)Nc2cc(-c3ccccc3)sc2C(=O)O)c(C)c1 | 57 |
| 4.6 | 33 | Cc1ccc(S(=O)(=O)Nc2cc(-c3ccccc3)sc2C(=O)O)cc1 | 79 |
| 5.2 | 24 | Cc1ccccc1S(=O)(=O)Nc1cc(-c2ccccc2)sc1C(=O)O | 76 |
| 0.39 | 8 | CC(=O)c1ccc(-c2cc(NS(=O)(=O)c3ccc(C)cc3C)c(C(=O)O)s2)cc1 | 100 |
| 0.75 | 13 | Cc1cc(Cl)ccc1S(=O)(=O)Nc1cc(-c2ccccc2)sc1C(=O)O | 54 |
